Key:
Format in all cases: in vivo
Settings in all cases: rating 0-100 (0 no damage, 100 complete death), 14 days after application
[1] = test system: green foxtail (Setaria viridis, SETVI); assay: Post-emerge herbicidal activity, greenhouse screen, SETVI
Source text: (§1) A standard greenhouse herbicide activity screening system was used to evaluate the herbicidal efficacy and crop safety of these test compounds. Seven broadleaf weed species including redroot pigweed (Amaranthus retroflexus, AMARE), velvetleaf (Abutilon theophrasti, ABUTH), sicklepod (Cassia obtusifolia, CASOB), ivyleaf morningglory (Ipomoea hederacea, IPOHE), lambsquarters (Chenopodium album, CHEAL), common ragweed (Ambrosia artemisiifolia L., AMBEL), and cocklebur (Xanthium strumarium, XANST) were used as test species. Four grass weed species including green foxtail (Setaria viridis, SETVI), barnyardgrass (Echinochloa crus-galli, ECHCG), johnsongrass (Sorghum halepense, SORHA), and large crabgrass (Digitaria sanguinalis, DIGSA) were also used. In addition, three crop species, field corn (Zea mays L., var. Dekalb 527, CORN), soybean (Glycine max L., var. Pella 86, SOY), and upland rice (Oryza sp., var. Tebonnet, RICE) were included.
(§2) All plants were grown in 10 cm square plastic pots which were filled with a sandy loam soil mix. For pre-emerge tests, seeds were planted one day prior to application of the test compounds. For post-emerge tests, seeds were planted 8-21 days prior to the test to allow emergence and good foliage development prior to application of the test substances. At the time of the post-emerge application, plants of all species were usually at the 2-3 leaf stage of development.
(§3) All test compounds were dissolved in acetone and applied to the test units in a volume of 187 l/ha. Test materials were applied at rates ranging from 15 g ai/ha to 1000 g ai/ha using a track sprayer equipped with a TJ8001 E even flow flat fan spray nozzle. Plants were arranged on a shelf so that the top of the canopy (post-emerge) or top of the soil surface (pre-emerge) was 40-45 cm below the nozzle. Pressurized air was used to force the test solution through the nozzle as it was mechanically advanced over the top of all test plants/pots. This application simulates a typical commercial field herbicide application.
(§4) In the post-emerge test, a commercial non-ionic surfactant was also included (0.25% v/v) to enhance wetting of the leaf surfaces of target plants. Immediately after application, test units of the pre-emerge applications were watered at the soil surface to incorporate the test materials.
(§5) At 14 days after application of the test materials, phytotoxicity ratings were recorded. A rating scale of 0-100 was used as previously described in Research Methods in Weed Science, 2nd edition, B. Truelove, Ed., Southern Weed Science Society, Auburn University, Auburn, Ala., 1977. Briefly, “0” corresponds to no damage and “100” corresponds to complete death of all plants in the test unit. This scale was used both to determine efficacy against weed species and damage to crop species. Herbicide activity data for various compounds of this invention, which are shown by compound No. in Tables 1-7, are shown in Tables 8 and 9.

[2] = test system: large crabgrass (Digitaria sanguinalis, DIGSA); assay: Pre-emerge herbicidal activity, greenhouse screen, DIGSA
Source text: as §1, §2, §3, §4, §5

[3] = test system: redroot pigweed (Amaranthus retroflexus, AMARE); assay: Post-emerge herbicidal activity, greenhouse screen, AMARE
Source text: as §1, §2, §3, §4, §5

[4] = test system: velvetleaf (Abutilon theophrasti, ABUTH); assay: Post-emerge herbicidal activity, greenhouse screen, ABUTH
Source text: as §1, §2, §3, §4, §5

[5] = test system: lambsquarters (Chenopodium album, CHEAL); assay: Post-emerge herbicidal activity, greenhouse screen, CHEAL
Source text: as §1, §2, §3, §4, §5

[6] = test system: large crabgrass (Digitaria sanguinalis, DIGSA); assay: Post-emerge herbicidal activity, greenhouse screen, DIGSA
Source text: as §1, §2, §3, §4, §5

[7] = test system: sicklepod (Cassia obtusifolia, CASOB); assay: Pre-emerge herbicidal activity, greenhouse screen, CASOB
Source text: as §1, §2, §3, §4, §5

[8] = test system: ivyleaf morningglory (Ipomoea hederacea, IPOHE); assay: Post-emerge herbicidal activity, greenhouse screen, IPOHE
Source text: as §1, §2, §3, §4, §5

[9] = test system: johnsongrass (Sorghum halepense, SORHA); assay: Pre-emerge herbicidal activity, greenhouse screen, SORHA
Source text: as §1, §2, §3, §4, §5

[10] = test system: lambsquarters (Chenopodium album, CHEAL); assay: Pre-emerge herbicidal activity, greenhouse screen, CHEAL
Source text: as §1, §2, §3, §4, §5

[11] = test system: ivyleaf morningglory (Ipomoea hederacea, IPOHE); assay: Pre-emerge herbicidal activity, greenhouse screen, IPOHE
Source text: as §1, §2, §3, §4, §5

[12] = test system: barnyardgrass (Echinochloa crus-galli, ECHCG); assay: Pre-emerge herbicidal activity, greenhouse screen, ECHCG
Source text: as §1, §2, §3, §4, §5

[13] = test system: sicklepod (Cassia obtusifolia, CASOB); assay: Post-emerge herbicidal activity, greenhouse screen, CASOB
Source text: as §1, §2, §3, §4, §5

[14] = test system: redroot pigweed (Amaranthus retroflexus, AMARE); assay: Pre-emerge herbicidal activity, greenhouse screen, AMARE
Source text: as §1, §2, §3, §4, §5

[15] = test system: common ragweed (Ambrosia artemisiifolia L., AMBEL); assay: Pre-emerge herbicidal activity, greenhouse screen, AMBEL
Source text: as §1, §2, §3, §4, §5

[16] = test system: green foxtail (Setaria viridis, SETVI); assay: Pre-emerge herbicidal activity, greenhouse screen, SETVI
Source text: as §1, §2, §3, §4, §5

[17] = test system: johnsongrass (Sorghum halepense, SORHA); assay: Post-emerge herbicidal activity, greenhouse screen, SORHA
Source text: as §1, §2, §3, §4, §5

[18] = test system: velvetleaf (Abutilon theophrasti, ABUTH); assay: Pre-emerge herbicidal activity, greenhouse screen, ABUTH
Source text: as §1, §2, §3, §4, §5

[19] = test system: common ragweed (Ambrosia artemisiifolia L., AMBEL); assay: Post-emerge herbicidal activity, greenhouse screen, AMBEL
Source text: as §1, §2, §3, §4, §5

[20] = test system: barnyardgrass (Echinochloa crus-galli, ECHCG); assay: Post-emerge herbicidal activity, greenhouse screen, ECHCG
Source text: as §1, §2, §3, §4, §5

| SMILES | Post-emerge Herbicidal Activity SETVI ([1]; 63 g ai/ha) | Post-emerge Herbicidal Activity SETVI ([1]; 250 g ai/ha) | Pre-emerge Herbicidal Activity DIGSA ([2]; 63 g ai/ha) | Pre-emerge Herbicidal Activity DIGSA ([2]; 250 g ai/ha) | Post-emerge Herbicidal Activity AMARE ([3]; 63 g ai/ha) | Post-emerge Herbicidal Activity AMARE ([3]; 250 g ai/ha) | Post-emerge Herbicidal Activity ABUTH ([4]; 63 g ai/ha) | Post-emerge Herbicidal Activity ABUTH ([4]; 250 g ai/ha) | Post-emerge Herbicidal Activity CHEAL ([5]; 63 g ai/ha) | Post-emerge Herbicidal Activity CHEAL ([5]; 250 g ai/ha) | Post-emerge Herbicidal Activity DIGSA ([6]; 63 g ai/ha) | Post-emerge Herbicidal Activity DIGSA ([6]; 250 g ai/ha) | Pre-emerge Herbicidal Activity CASOB ([7]; 63 g ai/ha) | Pre-emerge Herbicidal Activity CASOB ([7]; 250 g ai/ha) | Post-emerge Herbicidal Activity IPOHE ([8]; 63 g ai/ha) | Post-emerge Herbicidal Activity IPOHE ([8]; 250 g ai/ha) | Pre-emerge Herbicidal Activity SORHA ([9]; 63 g ai/ha) | Pre-emerge Herbicidal Activity SORHA ([9]; 250 g ai/ha) | Pre-emerge Herbicidal Activity CHEAL ([10]; 63 g ai/ha) | Pre-emerge Herbicidal Activity CHEAL ([10]; 250 g ai/ha) | other results |
| --- | --- | --- | --- | --- | --- | --- | --- | --- | --- | --- | --- | --- | --- | --- | --- | --- | --- | --- | --- | --- | --- |
| Cc1cc2c(-n3c(=O)cc(C(F)(F)F)n(C)c3=S)c(F)cc(Cl)c2o1 [Compound 2-2, 3-(7-chloro-5-fluoro-2-methyl-1-benzofuran-4-yl)-1-methyl-2-thioxo-6-(trifluoromethyl)-2,3-dihydropyrimidin-4(1H)-one] | 100 | 100 | 100 | 100 | 100 | 100 | 100 | 100 | 100 | 100 | 85 | 100 | 99 | 100 | 100 | 100 | 100 | 100 | 100 | 100 | Pre-emerge Herbicidal Activity IPOHE ([11]; 63 g ai/ha): 99; Pre-emerge Herbicidal Activity IPOHE ([11]; 250 g ai/ha): 99; Pre-emerge Herbicidal Activity ECHCG ([12]; 63 g ai/ha): 99; Pre-emerge Herbicidal Activity ECHCG ([12]; 250 g ai/ha): 100; Post-emerge Herbicidal Activity CASOB ([13]; 63 g ai/ha): 100; Post-emerge Herbicidal Activity CASOB ([13]; 250 g ai/ha): 100; Pre-emerge Herbicidal Activity AMARE ([14]; 63 g ai/ha): 100; Pre-emerge Herbicidal Activity AMARE ([14]; 250 g ai/ha): 100; Pre-emerge Herbicidal Activity AMBEL ([15]; 63 g ai/ha): 100; Pre-emerge Herbicidal Activity AMBEL ([15]; 250 g ai/ha): 100; Pre-emerge Herbicidal Activity SETVI ([16]; 63 g ai/ha): 100; Pre-emerge Herbicidal Activity SETVI ([16]; 250 g ai/ha): 100; Post-emerge Herbicidal Activity SORHA ([17]; 63 g ai/ha): 100; Post-emerge Herbicidal Activity SORHA ([17]; 250 g ai/ha): 100; Pre-emerge Herbicidal Activity ABUTH ([18]; 63 g ai/ha): 100; Pre-emerge Herbicidal Activity ABUTH ([18]; 250 g ai/ha): 100; Post-emerge Herbicidal Activity AMBEL ([19]; 63 g ai/ha): 100; Post-emerge Herbicidal Activity AMBEL ([19]; 250 g ai/ha): 100; Post-emerge Herbicidal Activity ECHCG ([20]; 63 g ai/ha): 100; Post-emerge Herbicidal Activity ECHCG ([20]; 250 g ai/ha): 100 |
| Cn1c(C(F)(F)F)cc(=O)n(-c2c(F)cc(Cl)c3ncoc23)c1=S [Compound 1-1, 3-(4-chloro-6-fluoro-1,3-benzoxazol-7-yl)-1-methyl-2-thioxo-6-(trifluoromethyl)-2,3-dihydropyrimidin4(1H)-one] | 100 | 100 | 100 | 100 | 100 | 100 | 100 | 100 | 100 | 100 | 95 | 99 | 100 | 100 | 100 | 100 | 100 | 100 | 100 | 100 | Pre-emerge Herbicidal Activity IPOHE ([11]; 63 g ai/ha): 100; Pre-emerge Herbicidal Activity IPOHE ([11]; 250 g ai/ha): 100; Pre-emerge Herbicidal Activity ECHCG ([12]; 63 g ai/ha): 100; Pre-emerge Herbicidal Activity ECHCG ([12]; 250 g ai/ha): 100; Post-emerge Herbicidal Activity CASOB ([13]; 63 g ai/ha): 100; Post-emerge Herbicidal Activity CASOB ([13]; 250 g ai/ha): 100; Pre-emerge Herbicidal Activity AMARE ([14]; 63 g ai/ha): 100; Pre-emerge Herbicidal Activity AMARE ([14]; 250 g ai/ha): 100; Pre-emerge Herbicidal Activity AMBEL ([15]; 63 g ai/ha): 100; Pre-emerge Herbicidal Activity AMBEL ([15]; 250 g ai/ha): 100; Pre-emerge Herbicidal Activity SETVI ([16]; 63 g ai/ha): 100; Pre-emerge Herbicidal Activity SETVI ([16]; 250 g ai/ha): 100; Post-emerge Herbicidal Activity SORHA ([17]; 63 g ai/ha): 95; Post-emerge Herbicidal Activity SORHA ([17]; 250 g ai/ha): 100; Pre-emerge Herbicidal Activity ABUTH ([18]; 63 g ai/ha): 100; Pre-emerge Herbicidal Activity ABUTH ([18]; 250 g ai/ha): 100; Post-emerge Herbicidal Activity AMBEL ([19]; 63 g ai/ha): 100; Post-emerge Herbicidal Activity AMBEL ([19]; 250 g ai/ha): 100; Post-emerge Herbicidal Activity ECHCG ([20]; 63 g ai/ha): 100; Post-emerge Herbicidal Activity ECHCG ([20]; 250 g ai/ha): 100 |

— patent US20040018941A1, “Fused-benzene derivatives of thiouracil, herbicidal and desiccant compositions contaning them” (ISHIHARA SANGYO KAISHA, LTD., priority 2002, published 2004)
